Test results: the RepoRT retention time repository (doi:10.1021/acs.analchem.2c02893)

Assay: RP, Thermo Scientific Acclaim RSLC 120 C18, 100 × 2.1 mm, 2.2 µm, 30 °C, 0.2 mL/min, estimated dead time 1.1 min; A: 90% water + 10% methanol + 0.01% formic acid + 5 mM ammonium formate, pH 3.61; B: methanol + 0.01% formic acid + 5 mM ammonium formate, pH 3.61; gradient (min/%B) 0/1 1/1 2/39 13/99.9 15/99.9 15.1/1 20.1/1
Conditions: stereoisomer not certain

| LC retention time | Structure (SMILES) |
| --- | --- |
| 13.1 min | CCCCCCCCCCCCCCCC[N+](C)(C)Cc1ccccc1 [Benzyldimethylhexadecylammonium] |
| 12.2 min | CCCCCCCCCCCCCC[N+](C)(C)Cc1ccccc1 [Benzyldimethyltetradecylammonium] |
| 5.06 min | O=C1OCC(O)=C1Cc1ccccc1 [Benzyltetronic acid (2-)] |
| 9.37 min | CC(=O)OCC(=O)C1(O)C(C)CC2C3CCC4=CC(=O)C=CC4(C)C3(F)C(O)CC21C (stereo not drawn) [Betamethasone acetate] |
| 11.3 min | CCC(=O)OCC(=O)C1(OC(=O)CC)C(C)CC2C3CCC4=CC(=O)C=CC4(C)C3(F)C(O)CC21C (stereo not drawn) [Betamethasone dipropionate] |
| 11 min | CCCCC(=O)OC1(C(=O)CO)C(C)CC2C3CCC4=CC(=O)C=CC4(C)C3(F)C(O)CC21C (stereo not drawn) [Betamethasone-17-valerate] |
| 6.68 min | CC(C)NCC(O)COc1ccc(CCOCC2CC2)cc1 (stereo not drawn) [Betaxolol] |
| 3.97 min | CN=C(NC)NCc1ccccc1 [Bethanidine] |
| 14.1 min | C=C(c1ccc(C(=O)O)cc1)c1cc2c(cc1C)C(C)(C)CCC2(C)C [Bexarotene] |
| 8.77 min | CC(C)(Oc1ccc(CCNC(=O)c2ccc(Cl)cc2)cc1)C(=O)O [Bezafibrate] |
| 8.71 min | O=C(O)c1cc(Oc2ccc(Cl)cc2Cl)ccc1[N+](=O)[O-] [Bifenox acid] |
| 4.44 min | O=C(O)CCCCC1SCC2NC(=O)NC21 (stereo not drawn) [Biotin] |
| 7.63 min | OC(CCN1CCCCC1)(c1ccccc1)C1CC2C=CC1C2 (stereo not drawn) [Biperidene] |
| 8.92 min | CC(=O)Oc1ccc(C(c2ccc(OC(C)=O)cc2)c2ccccn2)cc1 [Bisacodyl] |
| 9.52 min | CC(C)(c1ccc(OCC(O)CO)cc1)c1ccc(OCC2CO2)cc1 (stereo not drawn) [Bisphenol<U+00A0>A (2,3-dihydroxypropyl) glycidyl ether] |
| 11.1 min | CC(C)(c1ccc(OCC(O)CCl)cc1)c1ccc(OCC2CO2)cc1 (stereo not drawn) [Bisphenol<U+00A0>A (3-chloro-2-hydroxypropyl) glycidyl ether] |
| 8.54 min | CCN(CC)CCCOC(=O)C1(c2ccccc2)CC2CCC1C2 (stereo not drawn) [Bornaprine] |
| 9.96 min | COc1ccccc1Oc1c(NS(=O)(=O)c2ccc(C(C)(C)C)cc2)nc(-c2ncccn2)nc1OCCO [Bosentan] |
| 10 min | CN(Cc1cc(Br)cc(Br)c1N)C1CCCCC1 [Bromhexine] |
| 7.12 min | O=C(CCCN1CCC(O)(c2ccc(Br)cc2)CC1)c1ccc(F)cc1 [Bromperidol] |
| 6.56 min | CN(C)CCC(c1ccc(Br)cc1)c1ccccn1 (stereo not drawn) [Brompheniramine] |
| 6.27 min | CCOc1ccc(NC(=O)CC(C)O)cc1 (stereo not drawn) [Bucetin] |
| 10.3 min | CCCC1OC2CC3C4CCC5=CC(=O)C=CC5(C)C4C(O)CC3(C)C2(C(=O)CO)O1 (stereo not drawn) [Budesonide] |
| 6.72 min | CC(C)(C)N1CCC(c2ccccc2)(c2ccccc2)CC1 [Budipine] |
| 7.83 min | CCCCNc1cc(C(=O)O)cc(S(N)(=O)=O)c1Oc1ccccc1 [Bumetanide] |
| 4.66 min | CC(C)(C)NCC(O)COc1ccccc1C#N (stereo not drawn) [Bunitrolol] |
| 6.18 min | CCCCN1CCCCC1C(=O)Nc1c(C)cccc1C (stereo not drawn) [Bupivacaine] |
| 5.01 min | CC(C)(C)NCC(O)COc1cc(C(=O)O)ccc1Cl (stereo not drawn) [Bupranolol- 5-Carboxy] |

Further lines, the compound ahead of its results:

| Structure (SMILES) | LC retention time |
| --- | --- |
| CCOC(=O)c1ccc(N)cc1 [Benzocaine] | 6.27 min |
| CNCC12CCC(c3ccccc31)c1ccccc12 [Benzoctamine] | 6.52 min |
| CCCCCCCCCCCC[N+](C)(C)Cc1ccccc1 [Benzododecinium (Benzyl-dimethyl-dodecylammonium)] | 11.2 min |
| CC(N)Cc1ccc2ccoc2c1 (stereo not drawn) [Benzofuran-6-ylpropan-2-amine<U+00A0>(6-APB)] | 4.81 min |
| Nc1ccc([N+](=O)[O-])cc1C(=O)c1ccccc1 [Benzophenone -2-Amino-5-nitro] | 8.99 min |
| COc1cc(O)c(C(=O)c2ccccc2)cc1S(=O)(=O)O [Benzophenone-4] | 6.19 min |
| Nc1ccc(Cl)cc1C(=O)c1ccccc1 [Benzophenone- 2-Amino-5-chloro] | 10.5 min |
| O=C(c1ccc(Cl)cc1)c1ccc(Cl)cc1 [Benzophenone-p.p-Dichloro] | 11.9 min |
| c1ccc2scnc2c1 [Benzothiazole (BTH)] | 6.88 min |
| O=c1[nH]c2ccccc2s1 [Benzothiazole -2-OH] | 6.53 min |
| CSc1nc2ccccc2s1 [Benzothiazole- 2-Me-S] | 9.79 min |
| S=c1[nH]c2ccccc2s1 [Benzothiazole-Mercapto] | 6.89 min |
| Cn1nnc2ccccc21 [Benzotriazole -1-Methyl] | 5.11 min |
| Cc1cccc2n[nH]nc12 [Benzotriazole -4-Me] | 5.83 min |
| On1nnc2ccccc21 [Benzotriazole-1-Hydroxy] | 3.88 min |
| Cc1cc2n[nH]nc2cc1C [Benzotriazole-5 6-di-Me] | 6.76 min |
| O=C(O)C1=CC=C2N=NN=C2C1 [Benzotriazole-5-carboxylic acid] | 3.81 min |
| Cc1ccc2n[nH]nc2c1 [Benzotriazole- 5-Me] | 5.83 min |
| Cln1nnc2ccccc21 [Benzotriazole-chloro] | 6.53 min |
| CCON=C(OC(=O)c1ccccc1)c1c(OC)ccc(Cl)c1OC [Benzoximate] | 11.3 min |
| CCCCCCCCCCCC[N+](CCO)(CCO)Cc1ccccc1 [Benzoxonium] | 11.3 min |
| CN1C2CCC1C(C(=O)O)C(OC(=O)c1ccccc1)C2 (stereo not drawn) [Benzoylecgonine] | 4.68 min |
| CCOC(=O)C(C)N(C(=O)c1ccccc1)c1ccc(Cl)c(Cl)c1 (stereo not drawn) [Benzoylprop-ethyl] | 11 min |
| NS(=O)(=O)c1cc2c(cc1Cl)NC(CSCc1ccccc1)=NS2(=O)=O [Benzthiazide] | 6.81 min |
| CNC(=O)Nc1nc2ccccc2s1 [Benzthiazuron] | 7.13 min |
| c1ccc(CN2CCNCC2)cc1 [Benzylpiperazine] | 4.23 min |
| CC(O)(CS(=O)(=O)c1ccc(F)cc1)C(=O)Nc1ccc(C#N)c(C(F)(F)F)c1 (stereo not drawn) [Bicalutamide] | 8.71 min |
| COc1ccc(-c2ccccc2)cc1NNC(=O)OC(C)C [Bifenazate] | 9.87 min |

| Structure (SMILES) | LC retention time |
| --- | --- |
| COC(=O)c1cc(Oc2ccc(Cl)cc2Cl)ccc1[N+](=O)[O-] [Bifenox] | 11.5 min |
| Cc1c(COC(=O)C2C(C=C(Cl)C(F)(F)F)C2(C)C)cccc1-c1ccccc1 (stereo not drawn) [Bifenthrin] | 14.1 min |
| CC(C)=CC1C(C(=O)OCc2coc(Cc3ccccc3)c2)C1(C)C (stereo not drawn) [Bioresmethrin] | 13.6 min |
| CC(C)(c1ccc(OCC2CO2)cc1)c1ccc(OCC2CO2)cc1 (stereo not drawn) [Bisphenol A diglycidyl ether] | 10.8 min |
| O=S(=O)(c1ccc(O)cc1)c1ccc(O)cc1 [Bisphenol S] | 5.35 min |
| CC(C)(c1ccc(OCC(O)CCl)cc1)c1ccc(OCC(O)CCl)cc1 (stereo not drawn) [Bisphenol<U+00A0>A bis(3-chloro-2-hydroxypropyl) ether] | 11.4 min |
| COc1cc(OC)nc(Oc2cccc(Oc3nc(OC)cc(OC)n3)c2C(=O)O)n1 [Bispyribac] | 8.86 min |
| CC(C)(C)C(O)C(Oc1ccc(-c2ccccc2)cc1)n1cncn1 (stereo not drawn) [Bitertanol] | 11.3 min |
| CC12C=CC(=O)C=C1CCC1C2CCC2(C)C(O)CCC12 (stereo not drawn) [Boldenone] | 9.03 min |
| O=C(Nc1ccccc1-c1ccc(Cl)cc1)c1cccnc1Cl [Boscalid] | 9.4 min |
| CNC(C)C(=O)c1ccc(Br)cc1 (stereo not drawn) [Brefedrone] | 5.05 min |
| O=c1oc2ccccc2c(O)c1C1CC(c2ccc(-c3ccc(Br)cc3)cc2)Cc2ccccc21 (stereo not drawn) [Brodifacoum] | 13 min |
| CCC(C)n1c(=O)[nH]c(C)c(Br)c1=O (stereo not drawn) [Bromacil] | 7.07 min |
| O=c1oc2ccccc2c(O)c1C(CC(O)c1ccc(-c2ccc(Br)cc2)cc1)c1ccccc1 (stereo not drawn) [Bromadiolone] | 11.5 min |
| O=C1CN=C(c2ccccn2)c2cc(Br)ccc2N1 [Bromazepam] | 7.28 min |
| CC(N)Cc1c2ccoc2c(Br)c2ccoc12 (stereo not drawn) [Bromodragonfly] | 7.41 min |
| COP(=S)(OC)Oc1cc(Cl)c(Br)cc1Cl [Bromophos (Bromophos-methyl)] | 12.7 min |
| CCOP(=S)(OCC)Oc1cc(Cl)c(Br)cc1Cl [Bromophos-ethyl] | 13.5 min |
| CC(C)OC(=O)C(O)(c1ccc(Br)cc1)c1ccc(Br)cc1 [Bromopropylate] | 12.5 min |
| CC(C)C(Br)C(=O)NC(N)=O (stereo not drawn) [Bromural (Bromisoval)] | 6.17 min |
| Cc1nnc2n1-c1sc(Br)cc1C(c1ccccc1Cl)=NC2 [Brotizolam] | 8.28 min |
| COc1cc2c(cc1OC)C13CCN4CC5=CCOC6CC(=O)N2C1C6C5CC43 (stereo not drawn) [Brucine] | 4.21 min |
| CN(C)CCc1c[nH]c2ccc(O)cc12 [Bufotenin] | 2.82 min |
| COc1ccc2c(c1O)-c1c3c(cc4c1C(C2)N(C)CC4)OCO3 (stereo not drawn) [Bulbocapnine] | 4.36 min |
| CCC(NC)C(=O)c1ccc(C)cc1 (stereo not drawn) [Buphedrone-4-Methyl] | 5.04 min |
| CCC(NC)C(=O)c1ccccc1 (stereo not drawn) [Buphedrone] | 4.26 min |
| CCCCc1c(C)nc(NCC)nc1OS(=O)(=O)N(C)C [Bupirimate] | 10.5 min |
